pIC50: −log10 of the molar value.
Columns and labels:
PLK4 (human) = PLK4 (human) (UniProt O00444); assay: KINOMEscan competition binding; settings: compound 10.0 µM
ACVR2B (human) = ACVR2B (human) (UniProt Q13705); assay: KINOMEscan competition binding; settings: compound 10.0 µM
MYLK (human) = MYLK (human) (UniProt Q15746); assay: KINOMEscan competition binding; settings: compound 10.0 µM
PAK6 (human) = PAK6 (human) (UniProt Q9NQU5); assay: KINOMEscan competition binding; settings: compound 10.0 µM
GSK3A (human) = GSK3A (human) (UniProt P49840); assay: KINOMEscan competition binding; settings: compound 10.0 µM
PIM1 (human) [1] = target: PIM1 (human) (UniProt P11309); assay: KINOMEscan competition binding; settings: compound 10.0 µM
DDR1 (human) = DDR1 (human) (UniProt Q08345); assay: KINOMEscan competition binding; settings: compound 10.0 µM
MAPK10 (human) = MAPK10 (human) (UniProt P53779); assay: KINOMEscan competition binding; settings: compound 10.0 µM
PIM3 (human) = PIM3 (human) (UniProt Q86V86); assay: KINOMEscan competition binding; settings: compound 10.0 µM
AAK1 (human) = AAK1 (human) (UniProt Q2M2I8); assay: KINOMEscan competition binding; settings: compound 10.0 µM
RIPK4 (human) = RIPK4 (human) (UniProt P57078); assay: KINOMEscan competition binding; settings: compound 10.0 µM
TGFBR2 (human) = TGFBR2 (human) (UniProt P37173); assay: KINOMEscan competition binding; settings: compound 10.0 µM
DAPK3 (human) = DAPK3 (human) (UniProt O43293); assay: KINOMEscan competition binding; settings: compound 10.0 µM
EPHA3 (human) = EPHA3 (human) (UniProt P29320); assay: KINOMEscan competition binding; settings: compound 10.0 µM
GAK (human) = GAK (human) (UniProt O14976); assay: KINOMEscan competition binding; settings: compound 10.0 µM
CSNK2A2 (human) = CSNK2A2 (human) (UniProt P19784); assay: KINOMEscan competition binding; settings: compound 10.0 µM
CAMK1 (human) = CAMK1 (human) (UniProt Q14012); assay: KINOMEscan competition binding; settings: compound 10.0 µM
STK16 (human) = STK16 (human) (UniProt O75716); assay: KINOMEscan competition binding; settings: compound 10.0 µM
STK17A (human) = STK17A (human) (UniProt Q9UEE5); assay: KINOMEscan competition binding; settings: compound 10.0 µM
PIM2 (human) [2] = target: PIM2 (human) (UniProt Q9P1W9); assay: KINOMEscan competition binding; settings: compound 10.0 µM
DAPK2 (human) = DAPK2 (human) (UniProt Q9UIK4); assay: KINOMEscan competition binding; settings: compound 10.0 µM
CAMK1D (human) = CAMK1D (human) (UniProt Q8IU85); assay: KINOMEscan competition binding; settings: compound 10.0 µM
LATS2 (human) = LATS2 (human) (UniProt Q9NRM7); assay: KINOMEscan competition binding; settings: compound 10.0 µM
CLK2 (human) = CLK2 (human) (UniProt P49760); assay: KINOMEscan competition binding; settings: compound 10.0 µM
DAPK1 (human) = DAPK1 (human) (UniProt P53355); assay: KINOMEscan competition binding; settings: compound 10.0 µM
PAK4 (human) = PAK4 (human) (UniProt O96013); assay: KINOMEscan competition binding; settings: compound 10.0 µM
STK17B (human) = STK17B (human) (UniProt O94768); assay: KINOMEscan competition binding; settings: compound 10.0 µM
TAOK3 (human) = TAOK3 (human) (UniProt Q9H2K8); assay: KINOMEscan competition binding; settings: compound 10.0 µM
MAP2K3 (human) = MAP2K3 (human) (UniProt P46734); assay: KINOMEscan competition binding; settings: compound 10.0 µM
[3] = target: TYK2 JH2 pseudokinase (human) (UniProt P29597); assay: KINOMEscan competition binding; settings: compound 10.0 µM
TTK (human) = TTK (human) (UniProt P33981); assay: KINOMEscan competition binding; settings: compound 10.0 µM
CSK (human) = CSK (human) (UniProt P41240); assay: KINOMEscan competition binding; settings: compound 10.0 µM
MAP3K7 (human) = MAP3K7 (human) (UniProt O43318); assay: KINOMEscan competition binding; settings: compound 10.0 µM
TAOK1 (human) = TAOK1 (human) (UniProt Q7L7X3); assay: KINOMEscan competition binding; settings: compound 10.0 µM
PHKG2 (human) = PHKG2 (human) (UniProt P15735); assay: KINOMEscan competition binding; settings: compound 10.0 µM
HIPK1 (human) = HIPK1 (human) (UniProt Q86Z02); assay: KINOMEscan competition binding; settings: compound 10.0 µM
PAK7 (human) = PAK7 (human) (UniProt Q9P286); assay: KINOMEscan competition binding; settings: compound 10.0 µM
MAPK8 (human) = MAPK8 (human) (UniProt P45983); assay: KINOMEscan competition binding; settings: compound 10.0 µM
CAMK2B (human) = CAMK2B (human) (UniProt Q13554); assay: KINOMEscan competition binding; settings: compound 10.0 µM
PIM1 (human) [4] = target: PIM1 (human) (UniProt P11309); assay: SelectScreen, TR FRET
PIM2 (human) [5] = target: PIM2 (human) (UniProt Q9P1W9); assay: SelectScreen, TR FRET

Sequence of PIM1 (human) (P11309 whole entry, looked up): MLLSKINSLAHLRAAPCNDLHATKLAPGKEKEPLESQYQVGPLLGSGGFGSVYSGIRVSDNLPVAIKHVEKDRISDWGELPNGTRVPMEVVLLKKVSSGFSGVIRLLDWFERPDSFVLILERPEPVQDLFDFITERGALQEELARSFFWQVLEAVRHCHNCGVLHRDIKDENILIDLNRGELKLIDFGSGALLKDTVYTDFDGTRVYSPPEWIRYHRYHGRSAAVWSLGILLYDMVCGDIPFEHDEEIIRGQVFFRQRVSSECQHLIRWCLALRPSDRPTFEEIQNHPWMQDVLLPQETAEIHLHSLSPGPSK
Sequence of PIM2 (human) (Q9P1W9 whole entry, looked up): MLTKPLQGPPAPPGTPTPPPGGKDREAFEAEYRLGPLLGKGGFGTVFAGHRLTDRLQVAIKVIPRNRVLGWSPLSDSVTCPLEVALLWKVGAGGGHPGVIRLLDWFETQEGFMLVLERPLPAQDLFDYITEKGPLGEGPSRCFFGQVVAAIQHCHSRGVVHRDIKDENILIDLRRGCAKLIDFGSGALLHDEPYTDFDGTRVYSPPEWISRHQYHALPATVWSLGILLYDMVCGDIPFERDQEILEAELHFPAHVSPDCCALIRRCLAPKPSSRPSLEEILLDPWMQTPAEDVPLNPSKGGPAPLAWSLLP
Sequence of CSK (human) (P41240 whole entry, looked up): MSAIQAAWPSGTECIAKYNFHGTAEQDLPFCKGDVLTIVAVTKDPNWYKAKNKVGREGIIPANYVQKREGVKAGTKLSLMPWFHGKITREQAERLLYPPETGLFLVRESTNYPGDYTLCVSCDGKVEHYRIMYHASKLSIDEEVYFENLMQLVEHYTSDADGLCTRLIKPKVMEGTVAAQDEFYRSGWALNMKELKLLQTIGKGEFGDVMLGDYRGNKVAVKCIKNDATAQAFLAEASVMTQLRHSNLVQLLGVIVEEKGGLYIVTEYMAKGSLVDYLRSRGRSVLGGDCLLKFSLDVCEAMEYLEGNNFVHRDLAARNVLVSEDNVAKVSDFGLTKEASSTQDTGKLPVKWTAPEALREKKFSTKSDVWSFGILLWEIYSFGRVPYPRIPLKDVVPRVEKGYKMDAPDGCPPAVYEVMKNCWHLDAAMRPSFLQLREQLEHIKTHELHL
Sequence of EPHA3 (human) (P29320 whole entry, looked up): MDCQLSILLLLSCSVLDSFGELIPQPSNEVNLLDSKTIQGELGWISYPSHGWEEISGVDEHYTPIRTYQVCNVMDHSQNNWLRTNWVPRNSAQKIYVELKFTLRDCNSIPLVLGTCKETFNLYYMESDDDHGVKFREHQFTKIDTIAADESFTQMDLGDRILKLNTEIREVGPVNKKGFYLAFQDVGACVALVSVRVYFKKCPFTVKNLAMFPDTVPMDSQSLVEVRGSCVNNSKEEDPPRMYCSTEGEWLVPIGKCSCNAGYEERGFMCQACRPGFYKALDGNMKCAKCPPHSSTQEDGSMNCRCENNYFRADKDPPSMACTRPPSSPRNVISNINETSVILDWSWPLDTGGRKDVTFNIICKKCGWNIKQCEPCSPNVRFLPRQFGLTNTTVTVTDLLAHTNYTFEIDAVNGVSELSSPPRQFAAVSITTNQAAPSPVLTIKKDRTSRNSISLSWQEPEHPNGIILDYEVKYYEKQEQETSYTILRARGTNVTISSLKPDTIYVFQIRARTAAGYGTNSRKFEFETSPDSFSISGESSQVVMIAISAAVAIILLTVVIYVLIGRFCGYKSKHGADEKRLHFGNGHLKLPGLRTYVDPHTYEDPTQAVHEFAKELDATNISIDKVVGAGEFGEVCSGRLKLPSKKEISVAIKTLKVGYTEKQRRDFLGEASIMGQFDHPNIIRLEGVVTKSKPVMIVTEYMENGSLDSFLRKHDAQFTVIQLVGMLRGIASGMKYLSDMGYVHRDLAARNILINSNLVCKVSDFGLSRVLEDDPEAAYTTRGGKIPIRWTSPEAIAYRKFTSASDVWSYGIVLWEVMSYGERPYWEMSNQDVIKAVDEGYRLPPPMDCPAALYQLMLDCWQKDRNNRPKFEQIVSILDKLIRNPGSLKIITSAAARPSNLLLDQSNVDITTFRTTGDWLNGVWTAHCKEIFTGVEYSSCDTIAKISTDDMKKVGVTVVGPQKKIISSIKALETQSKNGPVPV
Sequence of CLK2 (human) (P49760 whole entry, looked up): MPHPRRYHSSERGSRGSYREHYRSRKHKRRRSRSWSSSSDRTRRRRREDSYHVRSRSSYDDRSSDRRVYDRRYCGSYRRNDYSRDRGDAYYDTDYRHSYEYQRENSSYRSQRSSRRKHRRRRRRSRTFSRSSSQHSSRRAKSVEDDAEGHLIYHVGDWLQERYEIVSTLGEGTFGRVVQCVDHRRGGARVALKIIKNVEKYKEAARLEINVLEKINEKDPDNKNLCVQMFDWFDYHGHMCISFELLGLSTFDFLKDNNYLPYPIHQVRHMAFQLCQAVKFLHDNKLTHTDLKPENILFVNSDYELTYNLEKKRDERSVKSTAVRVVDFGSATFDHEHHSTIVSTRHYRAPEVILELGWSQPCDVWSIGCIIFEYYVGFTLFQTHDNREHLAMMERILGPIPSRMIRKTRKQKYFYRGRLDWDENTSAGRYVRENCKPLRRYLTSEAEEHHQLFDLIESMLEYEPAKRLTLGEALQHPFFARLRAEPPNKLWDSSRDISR
Sequence of PAK4 (human) (O96013 whole entry, looked up): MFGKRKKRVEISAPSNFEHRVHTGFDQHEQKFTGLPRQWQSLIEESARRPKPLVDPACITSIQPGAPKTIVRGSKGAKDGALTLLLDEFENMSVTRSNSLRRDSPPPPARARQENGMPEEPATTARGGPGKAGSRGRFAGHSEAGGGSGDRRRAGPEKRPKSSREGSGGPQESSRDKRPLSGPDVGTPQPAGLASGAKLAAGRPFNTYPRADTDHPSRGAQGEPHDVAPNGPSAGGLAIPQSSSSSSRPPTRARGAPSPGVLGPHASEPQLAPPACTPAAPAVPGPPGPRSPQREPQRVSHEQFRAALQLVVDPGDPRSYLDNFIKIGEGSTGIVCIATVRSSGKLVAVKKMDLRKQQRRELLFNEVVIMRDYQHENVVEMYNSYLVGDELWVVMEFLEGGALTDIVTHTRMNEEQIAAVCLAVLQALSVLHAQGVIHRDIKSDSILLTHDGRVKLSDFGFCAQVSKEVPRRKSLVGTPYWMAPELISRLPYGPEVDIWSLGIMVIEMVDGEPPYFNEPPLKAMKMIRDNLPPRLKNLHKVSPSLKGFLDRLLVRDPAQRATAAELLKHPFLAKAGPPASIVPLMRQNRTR
Sequence of PAK6 (human) (Q9NQU5 whole entry, looked up): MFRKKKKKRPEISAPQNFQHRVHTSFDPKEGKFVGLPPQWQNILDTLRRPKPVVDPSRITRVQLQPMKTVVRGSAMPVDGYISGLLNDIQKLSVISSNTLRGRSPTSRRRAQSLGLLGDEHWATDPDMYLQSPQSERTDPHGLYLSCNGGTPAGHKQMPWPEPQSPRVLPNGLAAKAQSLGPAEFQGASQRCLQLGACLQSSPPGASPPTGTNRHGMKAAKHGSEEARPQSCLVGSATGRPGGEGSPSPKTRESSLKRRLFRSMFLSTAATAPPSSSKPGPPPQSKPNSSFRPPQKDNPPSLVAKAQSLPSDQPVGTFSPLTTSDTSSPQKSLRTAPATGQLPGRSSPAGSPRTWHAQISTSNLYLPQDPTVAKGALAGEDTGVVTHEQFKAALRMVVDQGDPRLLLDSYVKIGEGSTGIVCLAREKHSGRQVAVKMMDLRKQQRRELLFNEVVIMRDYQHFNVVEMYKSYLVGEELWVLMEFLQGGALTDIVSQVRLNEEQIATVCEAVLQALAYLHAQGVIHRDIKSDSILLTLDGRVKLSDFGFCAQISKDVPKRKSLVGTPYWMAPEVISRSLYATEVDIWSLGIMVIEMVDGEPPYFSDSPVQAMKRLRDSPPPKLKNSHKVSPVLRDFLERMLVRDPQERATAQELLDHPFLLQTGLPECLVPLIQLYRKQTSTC
Sequence of HIPK1 (human) (Q86Z02 whole entry, looked up): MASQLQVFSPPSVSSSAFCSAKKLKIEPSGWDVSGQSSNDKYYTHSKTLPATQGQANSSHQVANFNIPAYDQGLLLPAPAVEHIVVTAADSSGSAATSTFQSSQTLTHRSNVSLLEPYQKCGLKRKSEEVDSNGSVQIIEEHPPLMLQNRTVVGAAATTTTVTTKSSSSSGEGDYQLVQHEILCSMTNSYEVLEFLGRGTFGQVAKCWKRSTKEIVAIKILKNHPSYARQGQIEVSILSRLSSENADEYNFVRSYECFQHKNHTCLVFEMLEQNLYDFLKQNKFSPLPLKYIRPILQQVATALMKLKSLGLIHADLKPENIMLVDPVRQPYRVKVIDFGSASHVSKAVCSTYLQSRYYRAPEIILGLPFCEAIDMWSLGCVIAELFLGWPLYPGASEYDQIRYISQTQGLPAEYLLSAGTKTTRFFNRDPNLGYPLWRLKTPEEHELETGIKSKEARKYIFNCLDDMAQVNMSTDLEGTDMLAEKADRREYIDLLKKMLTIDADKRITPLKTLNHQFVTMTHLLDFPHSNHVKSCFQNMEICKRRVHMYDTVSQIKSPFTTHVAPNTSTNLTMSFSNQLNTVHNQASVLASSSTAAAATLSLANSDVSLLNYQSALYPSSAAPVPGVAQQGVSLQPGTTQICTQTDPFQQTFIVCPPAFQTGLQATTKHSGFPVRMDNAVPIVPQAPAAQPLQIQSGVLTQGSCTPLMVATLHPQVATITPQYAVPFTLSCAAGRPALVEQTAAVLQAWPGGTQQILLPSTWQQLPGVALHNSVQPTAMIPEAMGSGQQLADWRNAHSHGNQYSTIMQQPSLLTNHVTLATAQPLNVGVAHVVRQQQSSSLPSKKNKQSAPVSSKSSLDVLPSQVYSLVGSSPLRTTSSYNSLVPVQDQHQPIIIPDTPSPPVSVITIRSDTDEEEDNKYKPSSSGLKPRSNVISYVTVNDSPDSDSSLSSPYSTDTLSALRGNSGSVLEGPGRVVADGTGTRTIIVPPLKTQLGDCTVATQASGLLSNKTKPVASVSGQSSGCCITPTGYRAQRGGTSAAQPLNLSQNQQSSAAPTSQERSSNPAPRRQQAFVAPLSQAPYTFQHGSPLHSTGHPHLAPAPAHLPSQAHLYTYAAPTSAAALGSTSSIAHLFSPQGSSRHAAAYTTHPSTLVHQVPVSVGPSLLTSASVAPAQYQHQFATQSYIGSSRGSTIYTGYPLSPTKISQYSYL

Cc1cn(-c2cc(NC(=O)c3cccc4cc(-c5ccc(/C=C6\SC(=N)NC6=O)o5)ccc34)cc(C(F)(F)F)c2)cn1
kinase still bound, per cent of control (PLK4 (human)): 1%
kinase still bound, per cent of control (ACVR2B (human)): 24%
kinase still bound, per cent of control (MYLK (human)): 21%
kinase still bound, per cent of control (PAK6 (human)): 30%
kinase still bound, per cent of control (GSK3A (human)): 32%
kinase still bound, per cent of control (PIM1 (human) [1]): 1.8%
kinase still bound, per cent of control (DDR1 (human)): 22%
kinase still bound, per cent of control (MAPK10 (human)): 16%
kinase still bound, per cent of control (PIM3 (human)): 1.9%
kinase still bound, per cent of control (AAK1 (human)): 26%
kinase still bound, per cent of control (RIPK4 (human)): 1%
kinase still bound, per cent of control (TGFBR2 (human)): 11%
kinase still bound, per cent of control (DAPK3 (human)): 15%
kinase still bound, per cent of control (EPHA3 (human)): 32%
kinase still bound, per cent of control (GAK (human)): 28%
kinase still bound, per cent of control (CSNK2A2 (human)): 34%
kinase still bound, per cent of control (CAMK1 (human)): 20%
kinase still bound, per cent of control (STK16 (human)): 22%
kinase still bound, per cent of control (STK17A (human)): 2.4%
kinase still bound, per cent of control (PIM2 (human) [2]): 0.5%
kinase still bound, per cent of control (DAPK2 (human)): 7.1%
kinase still bound, per cent of control (CAMK1D (human)): 29%
kinase still bound, per cent of control (LATS2 (human)): 31%
kinase still bound, per cent of control (CLK2 (human)): 21%
kinase still bound, per cent of control (DAPK1 (human)): 32%
kinase still bound, per cent of control (PAK4 (human)): 29%
kinase still bound, per cent of control (STK17B (human)): 0.6%
kinase still bound, per cent of control (TAOK3 (human)): 5.6%
kinase still bound, per cent of control (MAP2K3 (human)): 20%
kinase still bound, per cent of control [3]: 2.6%
kinase still bound, per cent of control (TTK (human)): 18%
kinase still bound, per cent of control (CSK (human)): 30%
kinase still bound, per cent of control (MAP3K7 (human)): 13%
kinase still bound, per cent of control (TAOK1 (human)): 5.8%
kinase still bound, per cent of control (PHKG2 (human)): 29%
kinase still bound, per cent of control (HIPK1 (human)): 0.15%
kinase still bound, per cent of control (PAK7 (human)): 34%
kinase still bound, per cent of control (MAPK8 (human)): 14%
kinase still bound, per cent of control (CAMK2B (human)): 29%
pIC50 (PIM1 (human) [4]): 5.30
pIC50 (PIM2 (human) [5]): 6.18
